Measurements from publication PMC3793977, “High-Throughput Screening (HTS) and Hit Validation to Identify Small Molecule Inhibitors with Activity against NS3/4A proteases from Multiple Hepatitis C Virus Genotypes” (PLoS ONE, 2013).

Assays:
replicon cells 1b = tested on: replicon cells 1b; parameters: method as in PMID 19457562, PMID 14578911; settings: cited from earlier work
full-length NS3/4A = biological target: T1, full-length NS3/4A (Hepatitis C virus genotype 1b, UniProt Q9WMX2); assay: Type (mechanism) of enzyme inhibition, kinetic analysis; assay type: biochemical; settings: with respect to the substrate, best fit model
T1 construct: wild-type HCV NS3 (HCV polyprotein residues 1027–1657); His-tag (N); made in house
Procedure: Full-length NS3/4A activity was monitored in the same way as the primary screening with varying concentration of both inhibitor compounds and substrate (0–8 µM). The concentration of compounds varied from 0 to 20 µM at 1.5-fold dilution factor.

[1] = biological target: T2, NS3/4A protease genotype 2a (Hepatitis C virus genotype 2a, UniProt Q99IB8); assay: Inhibition assay with NS3/4A from genotype 2a; assay type: biochemical; settings: IC50 Purified NS3/4A Sub-genotype 2a, genotype 2a
T2 construct: against the NS3/4A protease domains from three additional HCV genotypes (1a, 2a, and 4d); purchased Anaspec
Procedure: The inhibitory activity of the final hit compounds from HTS were tested against three other HCV genotypes (1a, 2a, and 4d), along with a control (genotype 1b) and five NS3 drug-resistant mutants. Eight full-length NS3 mutants (V36M, R155K, A156T, A156S, 156V, V36A, T54A, and R155T) were generated by mutagenesis and purified, and the three HCV NS3/4A protease genotypes were purchased from Anaspec. Unfortunately the enzyme activities of the three mutants V36A, T54A, and R155T were much less than that of the rest of the mutants and were insufficient for testing, therefore mutant studies were done with the five active mutants. Continuous kinetic assays were performed against all hit compounds in the same way as the wild-type NS3/4A. As a control, full-length NS3/4A (genotype 1b) was tested under the same conditions for direct comparison for each plate.

[2] = biological target: T3, full-length NS3/4A protease (genotype 1b) (Hepatitis C virus genotype 1b, UniProt Q9WMX2); assay: biochemical; settings: IC50 Full-length NS3/4A, purified full-length NS3/4A, genotype 1b wild-type
T3 construct: wild-type HCV NS3 (HCV polyprotein residues 1027–1657); His-tag (N); made in house
Procedure: All assays were done in duplicate in black 384-well plates (Matrix Technologies). […] 200 nL of 10 mM compound (50 µM final concentrations) were then added and incubated for 5 minutes. Enzyme reactions were initiated with 10 µL of substrate Ac-DE-Dap(QXL520)-EE-Abu-ψ-[COO]AS-C(5-FAMsp)-NH2 (Anaspec) (1 µM final concentration), incubated for 6 minutes, and quenched by 10 µL of 10% SDS as a stop solution. Fluorescence intensity was monitored with a POLARstar OPTIMA microplate reader (BMG LABTECH). Each plate contained a total of 32 positive and 32 negative controls.
(§1) A series of compound concentrations (0 to 200 µM final concentration at 2-fold serial dilution) in 100% DMSO were prepared in a 384-well plate. 20 µL of enzyme solution was distributed to wells, and 0.5 µL of varying concentration of compounds were added and incubated for 5 minutes. The enzyme reaction was initiated by adding 5 µL of the substrate, and its activity was continuously monitored for 6 minutes. The IC50 values were calculated by fitting with the Hill equation (1), with OriginPro 8.5 (OriginLab, Inc.) where y is percent inhibition, x is inhibitor concentration, n is the slope of the concentration–response curve (Hill slope), and Vmax is maximal inhibition from two to four independent assays. [drawing 1] (1)

[3] = biological target: T4, HCV replicon cell lysate sg 1b (NS3) (Hepatitis C virus genotype 1b, UniProt Q9WMX2); assay: Whole cell lysate inhibition assay, HCV subgenomic replicon 1b; assay type: biochemical
T4 construct: host or cells: Huh7 Clone B cells stably replicating an HCV 1b subgenomic replicon; whole cell lysate
Procedure: (§2) Huh7-1 cells (also known as Huh7/scr cells) were obtained from F.V. Chisari (The Scripps Research Institute, La Jolla, CA). Clone B HCV sub-genotype 1b Huh7 cells were obtained from the NIH AIDS Research and Reference Reagent Program and have been previously described. Huh7 cells stably replicating the sub-genotype 2a HCV JFH-1 replicon were generated as previously described. All cells were cultured in complete Dulbecco’s modified Eagle’s medium (DMEM) supplemented with 10% fetal bovine serum, 100 units/mL penicillin, […] streptomycin, and 2 mM L-glutamine. HCV replicon cells were maintained in 500 µg/mL Geneticin (Invitrogen). For NS3 inhibition analysis, lysates from parental Huh7 cells and HCV replicon cells were harvested on ice in pre-chilled FRET cell lysis buffer (50 mM Tris-HCl, pH 7.5; 150 mM NaCl, 2 mM EDTA, 1.25% Triton X-100). Lysates were brought to room temperature and mixed 1∶1 with 2× FRET assay buffer (100 mM Tris-HCl, pH 7.5, 300 mM NaCl, 4 mM EDTA, 2.5% Triton X-100, 10 mM GSH, and 4 µM substrate). Fluorescence intensity was continuously monitored for 1 hour, and IC50 values were determined in the same way as biochemical assays.

[4] = biological target: T5, HCV replicon cell lysate sg 2a (NS3) (Hepatitis C virus genotype 2a, UniProt Q99IB8); assay: Whole cell lysate inhibition assay, HCV subgenomic replicon 2a; assay type: biochemical
T5 construct: expressed in transfected cells; host or cells: Huh7 cells stably replicating the JFH-1 subgenomic replicon; whole cell lysate
Procedure: as §2

replicon cells 2a = tested on: replicon cells 2a; parameters: method as in PMID 19457562, PMID 14578911; settings: cited from earlier work
NS3 protease domain = biological target: T6, NS3 protease domain (Hepatitis C virus genotype 1b, UniProt Q9WMX2); assay: Fluorescence enzymatic assay with NS3 protease domain alone; assay type: biochemical
T6 construct: the full-length NS3/4A and the NS3/4A protease domain alone
Procedure: as §1

COc1ccc2c(O[C@@H]3C[C@H]4C(=O)N[C@]5(C(=O)O)C[C@H]5/C=C\CCCCC[C@H](NC(=O)OC5CCCC5)C(=O)N4C3)cc(-c3csc(NC(C)C)n3)nc2c1 [BILN-2061, reference compound]
EC50 (replicon cells 1b): 3 nM | mechanism of inhibition (full-length NS3/4A): competitive inhibition | IC50 [1]: 12 ± 1 nM | IC50 [2]: 4.6 ± 0.5 nM | fold increase of IC50, whole cell lysate 1b vs biochemical assay ([3]; sg1b lysate compared to purified enzyme): ~8 fold | IC50 ([3]; whole cell lysate, subgenomic replicon 1b): 37 ± 10 nM | fold increase of IC50, whole cell lysate 2a vs biochemical assay ([4]; sg2a lysate compared to purified enzyme): ~19 fold | IC50 ([4]; whole cell lysate, subgenomic replicon 2a): 230 ± 30 nM | EC50 (replicon cells 2a): 67 nM | IC50 (NS3 protease domain): 1.7 ± 0.1 nM
